Experimental findings from US10875875B2, “Propionic acid derivatives and methods of use thereof” (Aviara Pharmaceuticals, Inc., priority 2017, dated 2020) are described below.

This assay has as its target α4β1 (Homo sapiens, UniProt P05556+P13612). Nature of the assay: α4β1 integrin inhibition, IC50. Conditions: read-out: α4β1 IC50. The assay is classed as binding.

pIC50: −log10 of the molar value. A value given as a limit tells only on which side of the number the result lay.

α4β1, sequence (P13612 34-1032): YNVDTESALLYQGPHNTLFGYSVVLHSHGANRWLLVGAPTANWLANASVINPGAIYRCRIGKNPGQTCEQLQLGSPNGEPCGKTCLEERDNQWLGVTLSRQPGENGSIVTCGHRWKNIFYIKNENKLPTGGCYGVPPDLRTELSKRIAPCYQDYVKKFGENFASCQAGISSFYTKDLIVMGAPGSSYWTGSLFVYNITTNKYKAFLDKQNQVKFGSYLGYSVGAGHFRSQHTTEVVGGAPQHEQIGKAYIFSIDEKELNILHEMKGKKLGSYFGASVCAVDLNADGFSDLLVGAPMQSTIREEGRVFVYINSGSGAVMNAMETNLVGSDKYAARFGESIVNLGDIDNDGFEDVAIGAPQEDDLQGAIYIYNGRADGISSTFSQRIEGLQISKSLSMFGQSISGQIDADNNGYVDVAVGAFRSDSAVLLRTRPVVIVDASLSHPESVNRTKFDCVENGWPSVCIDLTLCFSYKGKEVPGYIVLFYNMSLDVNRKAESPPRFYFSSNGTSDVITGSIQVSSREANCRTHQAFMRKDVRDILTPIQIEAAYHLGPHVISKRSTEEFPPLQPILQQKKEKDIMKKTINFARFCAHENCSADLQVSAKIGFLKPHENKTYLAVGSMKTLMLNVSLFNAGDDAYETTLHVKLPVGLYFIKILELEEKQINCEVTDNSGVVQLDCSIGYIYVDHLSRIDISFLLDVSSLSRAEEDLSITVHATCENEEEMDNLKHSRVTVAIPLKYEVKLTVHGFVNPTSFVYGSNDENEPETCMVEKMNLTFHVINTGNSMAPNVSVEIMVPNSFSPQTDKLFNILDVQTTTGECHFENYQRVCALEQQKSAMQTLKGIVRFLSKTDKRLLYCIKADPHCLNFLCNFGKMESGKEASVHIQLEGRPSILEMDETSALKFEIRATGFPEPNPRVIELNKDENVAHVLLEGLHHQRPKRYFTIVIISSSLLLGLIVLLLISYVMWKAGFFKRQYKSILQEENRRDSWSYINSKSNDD
α4β1, sequence (P05556 21-798): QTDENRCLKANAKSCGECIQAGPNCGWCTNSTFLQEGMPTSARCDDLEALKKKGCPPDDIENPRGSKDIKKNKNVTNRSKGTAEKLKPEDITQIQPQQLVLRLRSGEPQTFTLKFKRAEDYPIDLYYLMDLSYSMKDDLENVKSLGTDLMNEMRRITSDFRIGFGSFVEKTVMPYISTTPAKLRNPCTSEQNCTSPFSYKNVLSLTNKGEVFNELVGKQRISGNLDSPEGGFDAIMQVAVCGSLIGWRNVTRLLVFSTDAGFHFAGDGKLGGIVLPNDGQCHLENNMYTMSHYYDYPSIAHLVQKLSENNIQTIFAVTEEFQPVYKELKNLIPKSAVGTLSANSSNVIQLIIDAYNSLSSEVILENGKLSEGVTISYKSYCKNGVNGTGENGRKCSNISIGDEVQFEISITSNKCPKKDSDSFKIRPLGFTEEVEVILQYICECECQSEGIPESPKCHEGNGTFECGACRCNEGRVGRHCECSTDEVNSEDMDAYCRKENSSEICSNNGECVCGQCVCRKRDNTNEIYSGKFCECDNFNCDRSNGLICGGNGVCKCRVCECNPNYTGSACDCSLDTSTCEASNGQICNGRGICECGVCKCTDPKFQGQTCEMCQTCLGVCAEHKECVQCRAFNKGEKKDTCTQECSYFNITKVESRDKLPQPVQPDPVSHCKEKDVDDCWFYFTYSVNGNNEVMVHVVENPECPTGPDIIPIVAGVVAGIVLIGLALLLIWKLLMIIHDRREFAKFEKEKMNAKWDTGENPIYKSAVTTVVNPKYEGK

On to `COc1cccc(-c2cc(F)cc([C@H](CC(=O)O)NC(=O)Nc3c(O)ccn(C)c3=O)c2)c1` [1-604, sodium (S)-3-(5-fluoro-3′-methoxybiphenyl-3-yl)-3-(3-(1-methyl-4-oxido-2-oxo-1,2-dihydropyridin-3-yl)ureido)propanoate], for which the negative logarithm of the IC50 (pIC50) is over 7.70.
Next, `Cc1cc(C)cc(-c2cccc([C@H](CC(=O)O)NC(=O)Nc3c(O)c(C)cn(C)c3=O)c2)c1` [1-454, sodium (S)-3-(3-(1,5-dimethyl-4-oxido-2-oxo-1,2-dihydropyridin-3-yl)ureido)-3-(3′,5′-dimethylbiphenyl-3-yl)propanoate]: over 6.70.
`Cc1cccc(-c2cccc([C@H](CC(=O)O)NC(=O)Nc3c(O)c(C)cn(C)c3=O)c2)c1C` [1-462, sodium (S)-3-(3-(1,5-dimethyl-4-oxido-2-oxo-1,2-dihydropyridin-3-yl)ureido)-3-(2′,3′-dimethylbiphenyl-3-yl)propanoate]: the pIC50 was over 6.70.
For the compound `Cn1ccc(O)c(NC(=O)N[C@@H](CC(=O)O)c2cc(-c3ccc(F)cc3F)cs2)c1=O` [1-523, sodium (S)-3-(4-(2,4-difluorophenyl)thiophen-2-yl)-3-(3-(1-methyl-4-oxido-2-oxo-1,2-dihydropyridin-3-yl)ureido)propanoate], the pIC50 is over 7.70.
For `Cc1cc(-c2cccc(OC(F)(F)F)c2)cc([C@H](CC(=O)O)NC(=O)Nc2c(O)cc(C)n(C)c2=O)c1` [1-631, sodium (S)-3-(3-(1,6-dimethyl-4-oxido-2-oxo-1,2-dihydropyridin-3-yl)ureido)-3-(5-methyl-3′-(trifluoromethoxy)biphenyl-3-yl)propanoate], the pIC50 was over 7.70.
Turning to `Cc1cn(C)c(=O)c(NC(=O)N[C@@H](CC(=O)O)c2cccc(-c3ccccc3C(F)(F)F)c2)c1O` [1-474, sodium (S)-3-(3-(1,5-dimethyl-4-oxido-2-oxo-1,2-dihydropyridin-3-yl)ureido)-3-(2′-(trifluoromethyl)biphenyl-3-yl)propanoate], the pIC50 is over 6.70.
Then `Cc1cn(C)c(=O)c(NC(=O)N[C@@H](CC(=O)O)c2ccc(-c3ccc(F)cc3F)cc2)c1O` [1-623, sodium (S)-3-(2′,4′-difluorobiphenyl-4-yl)-3-(3-(1,5-dimethyl-4-oxido-2-oxo-1,2-di hydropyridin-3-yl)ureido)propanoate], with over 7.70; and `CCn1ccc(O)c(NC(=O)N[C@@H](CC(=O)O)c2cccc(-c3ccc(F)cc3F)c2)c1=O` [1-531, sodium (S)-3-(2′,4′-difluorobiphenyl-3-yl)-3-(3-(1-ethyl-4-oxido-2-oxo-1,2-dihydropyridin-3-yl)ureido)propanoate], with over 7.70; and `COc1cccc(-c2cccc([C@H](CC(=O)O)NC(=O)Nc3c(O)ccn(C)c3=O)c2)c1` [1-501, sodium (S)-3-(3′-methoxybiphenyl-3-yl)-3-(3-(1-methyl-4-oxido-2-oxo-1,2-dihydropyridin-3-yl)ureido)propanoate], with over 7.70.
Regarding `COc1cccc(-c2cccc([C@H](CC(=O)O)NC(=O)Nc3c(O)cc(C)n(C)c3=O)c2)c1` [1-553, sodium (S)-3-(3-(1,6-dimethyl-4-oxido-2-oxo-1,2-dihydropyridin-3-yl)ureido)-3-(3′-methoxybiphenyl-3-yl)propanoate], the pIC50 was over 7.70.
With `COc1cc(-c2ccc(F)cc2F)cc([C@H](CC(=O)O)NC(=O)Nc2c(O)ccn(C)c2=O)c1` [1-566, sodium (S)-3-(2′,4′-difluoro-5-methoxybiphenyl-3-yl)-3-(3-(1-methyl-4-oxido-2-oxo-1,2-dihydropyridin-3-yl)ureido)propanoate], the pIC50 is over 7.70.
Then `Cn1ncc(O)c(NC(=O)N[C@@H](CC(=O)O)c2cccc(-c3ccc(F)cc3F)c2)c1=O` [1-549, sodium (S)-3-(2′,4′-difluorobiphenyl-3-yl)-3-(3-(2-methyl-5-oxido-3-oxo-2,3-dihydropyridazin-4-yl)ureido)propanoate], with over 7.70; and `COc1ccc([C@H](CC(=O)O)NC(=O)Nc2c(O)cc(C)n(C)c2=O)cc1-c1cccc(OC(F)(F)F)c1` [1-554, sodium (S)-3-(3-(1,6-dimethyl-4-oxido-2-oxo-1,2-dihydropyridin-3-yl)ureido)-3-(6-methoxy-3′-(trifluoromethoxy)biphenyl-3-yl)propanoate], with over 7.70.
In the case of `Cc1ccc([C@H](CC(=O)O)NC(=O)Nc2c(O)ccn(C)c2=O)cc1-c1cccc(OC(F)(F)F)c1` [1-576, sodium (S)-3-(6-methyl-3′-(trifluoromethoxy)biphenyl-3-yl)-3-(3-(1-methyl-4-oxido-2-oxo-1,2-dihydropyridin-3-yl)ureido)propanoate], the pIC50 is over 7.70.
Take `Cc1cn(C)c(=O)c(NC(=O)N[C@@H](CC(=O)O)c2cccc(-c3cccc(Cl)c3)c2)c1O` [1-499, sodium (S)-3-(3′-chlorobiphenyl-3-yl)-3-(3-(1,5-dimethyl-4-oxido-2-oxo-1,2-dihydropyridin-3-yl)ureido)propanoate]: the pIC50 is over 7.70.
With `Cc1cn(C)c(=O)c(NC(=O)NC(CC(=O)O)c2cccc(-c3ccc(F)c(Cl)c3)c2)c1O` (stereo not shown) [1-484, sodium 3-(3′-chloro-4′-fluorobiphenyl-3-yl)-3-(3-(1,5-dimethyl-4-oxido-2-oxo-1,2-dihydropyridin-3-yl)ureido)propanoate], the pIC50 is over 6.70.
`COc1ccc(-c2ccccc2)cc1[C@H](CC(=O)O)NC(=O)Nc1c(O)ccn(C)c1=O` [1-596, sodium (S)-3-(4-methoxybiphenyl-3-yl)-3-(3-(1-methyl-4-oxido-2-oxo-1,2-dihydropyridin-3-yl)ureido)propanoate]: the pIC50 is over 7.70.
Consider `Cc1cc(-c2c(C)cccc2C)cc([C@H](CC(=O)O)NC(=O)Nc2c(O)ccn(C)c2=O)c1` [1-573, sodium (S)-3-(3-(1-methyl-4-oxido-2-oxo-1,2-dihydropyridin-3-yl)ureido)-3-(2′,5,6′-trimethylbiphenyl-3-yl)propanoate], for which the pIC50 is over 7.70.
Next, `Cc1cc(-c2ccc(F)cc2F)cc([C@H](CC(=O)O)NC(=O)Nc2c(O)ccn(C)c2=O)c1` [1-574, sodium (S)-3-(2′,4′-difluoro-5-methylbiphenyl-3-yl)-3-(3-(1-methyl-4-oxido-2-oxo-1,2-dihydropyridin-3-yl)ureido)propanoate]: over 7.70.
On to `Cc1cc(O)c(NC(=O)N[C@@H](CC(=O)O)c2cccc(-c3ccc(F)cc3F)c2)c(=O)[nH]1` [1-557, sodium (S)-3-(2′,4′-difluorobiphenyl-3-yl)-3-(3-(6-methyl-4-oxido-2-oxo-1,2-dihydropyridin-3-yl)ureido)propanoate], for which the pIC50 was under 6.70.
For `COc1ccc([C@H](CC(=O)O)NC(=O)Nc2c(O)ccn(C)c2=O)cc1-c1ccc(OC(F)(F)F)cc1` [1-536, sodium (S)-3-(6-methoxy-4′-(trifluoromethoxy)biphenyl-3-yl)-3-(3-(1-methyl-4-oxido-2-oxo-1,2-dihydropyridin-3-yl)ureido)propanoate], the pIC50 was over 7.70.
As to `COc1ccc(-c2cccc([C@H](CC(=O)O)NC(=O)Nc3c(O)c(C)cn(C)c3=O)c2)c(OC)c1` [1-468, sodium (S)-3-(2′,4′-dimethoxybiphenyl-3-yl)-3-(3-(1,5-dimethyl-4-oxido-2-oxo-1,2-dihydropyridin-3-yl)ureido)propanoate], the pIC50 was over 6.70.
